Measured values as given in PMC10101011, “A Retro-Aldol Reaction Prompted the Evolvability of a Phosphotransferase System for the Utilization of a Rare Sugar” (Microbiology Spectrum, 2023).

Columns and labels:
Type in all cases: biochemical
FruK (EC_FruK) [1] = molecular target: T1, FruK (EC_FruK) (Escherichia coli, UniProt P0AEW9); assay: coupled NADH oxidation assay (FbaA, TPI, G3PDH); conditions: 2 mM ATP, 2 mM substrate, 10 mM MgCl2, pH 8.0, 25 °C
T1 construct: His-tagged, pET-28a(+), expressed in E. coli BL21(DE3)

EC_KbaY = molecular target: T2, EC_KbaY (Escherichia coli, UniProt P0AB74); assay: coupled NADH oxidation assay (TPI, G3PDH); conditions: 1 mM substrate, 10 mM MgCl2, pH 8.0, 25 °C
T2 construct: gene kbaY; catalytic subunit alone without KbaZ, His-tagged, pET-28a(+), 31 kDa

EC_GatY = molecular target: T3, EC_GatY (Escherichia coli, UniProt P0C8J6); assay: coupled NADH oxidation assay (TPI, G3PDH); conditions: 1 mM substrate, 10 mM MgCl2, pH 8.0, 25 °C
T3 construct: gene gatY; catalytic subunit alone without GatZ, His-tagged, pET-28a(+), 30 kDa

FruK (EC_FruK) [2] = molecular target: T4, FruK (EC_FruK) (Escherichia coli, UniProt P0AEW9, A39S); assay: coupled NADH oxidation assay (GatY, TPI, G3PDH); conditions: 2 mM ATP, 2 mM substrate, 10 mM MgCl2, pH 8.0, 25 °C
T4 construct: His-tagged, pET-28a(+), expressed in E. coli BL21(DE3)
T4 sequence (P0AEW9 whole entry A39S): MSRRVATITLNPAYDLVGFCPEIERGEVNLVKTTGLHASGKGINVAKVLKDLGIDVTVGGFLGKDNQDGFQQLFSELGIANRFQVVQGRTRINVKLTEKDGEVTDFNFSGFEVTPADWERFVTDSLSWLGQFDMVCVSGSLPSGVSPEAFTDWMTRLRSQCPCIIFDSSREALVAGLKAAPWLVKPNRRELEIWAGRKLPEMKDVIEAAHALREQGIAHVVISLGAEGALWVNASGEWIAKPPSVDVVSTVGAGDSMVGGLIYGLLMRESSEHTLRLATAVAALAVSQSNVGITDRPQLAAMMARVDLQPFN

T2 sequence (P0AB74 whole entry): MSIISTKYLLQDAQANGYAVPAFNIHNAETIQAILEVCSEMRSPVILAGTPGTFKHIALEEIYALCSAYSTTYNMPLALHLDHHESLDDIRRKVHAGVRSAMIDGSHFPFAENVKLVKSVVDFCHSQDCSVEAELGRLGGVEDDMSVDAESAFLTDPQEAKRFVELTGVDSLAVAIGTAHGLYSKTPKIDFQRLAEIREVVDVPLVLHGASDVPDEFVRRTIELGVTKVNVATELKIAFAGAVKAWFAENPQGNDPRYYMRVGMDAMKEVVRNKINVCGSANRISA
T3 sequence (P0C8J6 whole entry): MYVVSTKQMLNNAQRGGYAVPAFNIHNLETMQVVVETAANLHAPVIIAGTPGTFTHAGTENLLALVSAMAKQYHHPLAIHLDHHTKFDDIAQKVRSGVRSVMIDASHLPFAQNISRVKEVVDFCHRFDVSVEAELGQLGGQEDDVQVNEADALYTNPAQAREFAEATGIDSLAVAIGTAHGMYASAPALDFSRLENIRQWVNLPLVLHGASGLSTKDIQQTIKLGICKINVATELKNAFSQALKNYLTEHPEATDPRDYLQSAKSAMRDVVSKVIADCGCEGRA
T1 sequence (P0AEW9 whole entry): as the sequence (P0AEW9 whole entry A39S) above, with S39A counted along it

Compound: O=P(O)(O)OCC1(O)O[C@H](CO)[C@@H](O)[C@@H]1O (stereo partly drawn) [D-Fru-1P]
- coupled NADH oxidation assay (FbaA, TPI, G3PDH) (FruK (EC_FruK) [1]): for primary D-Fru-1P were much lower than that of FruK_WT

Compound: O=P(O)(O)OC[C@H]1OC(O)(COP(=O)(O)O)[C@@H](O)[C@H]1O (stereo partly drawn) [D-Tag-1,6-BP]
- coupled NADH oxidation assay (TPI, G3PDH) (EC_KbaY): EC_GatY and EC_KbaY showed much lower D-Tag-1,6-BP cleavage activity than BL_GatY
- coupled NADH oxidation assay (TPI, G3PDH) (EC_GatY): EC_GatY and EC_KbaY showed much lower D-Tag-1,6-BP cleavage activity than BL_GatY

Compound: O=P(O)(O)OC[C@H]1OC(O)(CO)[C@@H](O)[C@H]1O (stereo partly drawn) [D-Tag-6P]
- coupled NADH oxidation assay (GatY, TPI, G3PDH) (FruK (EC_FruK) [2]): FruK_A39S showed relatively higher activities for D-Tag-6P than FruK_WT
